{
  "source": "patent US12582719B2",
  "about": "“Chimeric compounds and methods of managing neurological disorders or conditions” (Emory University, priority 2019, dated 2026)",
  "key": {"histone H4 deacetylation": {"system": "histone H4 deacetylation", "assay": "In vitro HDACI activity test (western blot, acetylated histone H4)", "type": "cell-based", "conditions": "9 L rat glioma cell line; for histone H4 acetylation: 5 μM, western blot", "method": "The HDACI activity chimeric compounds were tested by western blot using a specific antibody against acetylated histone H4, and 9 L rat glioma cell line. the inhibitory activity of HM3a-R was analyzed at different concentrations (1 μM or 5 μM) on histone H4 deacetylation, compared with established HDACi, entinostat, (pyridin-3-yl)methyl-4-(2-aminophenylcarbamoyl)benzylcarbamate, MS-275 (1 μM or 5 μM) as positive controls."}, "xylene-induced ear edema": {"system": "xylene-induced ear edema", "assay": "Xylene-induced mouse ear edema test", "type": "in vivo, mice", "conditions": "for anti-inflammation effect compared with the control group against xylene-induced ear edema: 10 mg/kg intraperitoneally, C57BL female mice, 2 h after xylene", "method": "Randomly selected C57BL adult female mice (6 weeks, ˜20 g) were divided into three groups of five mice in per group. Chimeric compounds (HM3a-R, HM3a-S, FIG. 2A) were dissolved in 10% dimethyl sulfoxide and 90% vehicle mixture. Vehicle formulation is 45% (2-hydroxypropyl)-β-cyclodextrin solution. And then, the compounds or vehicle were injected into mice as does 10 mg/kg and injection volume 100 μL intraperitoneally. After 30 min, mice treated 30 μL of xylene on the anterior and posterior surfaces of the right ear lobe, the left ear was considered as control. Two hours later, mice were sacrificed by using CO2 gas and both ears were cut off by using a cork borer with a diameter of 7 mm and weighed and the percentage of ear edema was calculated based on the weight of another ear without xylene."}, "Cellular toxicity": {"assay": "Cellular toxicity", "type": "cell-based"}, "[1]": {"system": "LPS-induced depressive behavior (immobility)", "assay": "Tail suspension test (TST) with lipopolysaccharide-induced depressive behavior", "type": "in vivo, mice", "method": "Randomly selected NIH Swiss adult male mice (7 weeks, ˜30 g) were divided into three groups of 5 mice in per group. LPS (Lipopolysaccharide) was administered as does 850 μg/kg in saline 100 μL intraperitoneally. After 1 h, chimeric compound (HM3a-R, FIG. 2A) or belinostat (Spectrum Pharmaceutical, Irvine, CA) was injected into mice as does 75 mg/kg in vehicle 100 μL intraperitoneally. Then the compounds were dissolved in 10% dimethyl sulfoxide and 90% vehicle mixture. Vehicle formulation is 45% (2-hydroxypropyl)-β-cyclodextrin solution. After 6 h and 24 h, tail suspension test was performed. Every tail-hanged mouse was video-recorded for 6 minutes. […] The tail suspension test (TST) was performed to assess antidepressant-like activity using lipopolysaccharide (LPS) which is an endotoxin that causes depressive behavior in mice. The antidepressant activities of HM3a-R and belinostat were compared with a control."}, "[2]": {"system": "carrageenan-induced paw edema", "assay": "Carrageenan-induced paw edema model", "conditions": "in vivo"}, "[3]": {"system": "immobility in forced swim test", "assay": "Forced swimming test (FST)", "type": "in vivo, mice", "conditions": "for improvement in forced-swim test (antidepressant-like activity): C57BL female mice, 6 h after injection, versus control", "method": "The FST experiment was performed twice, the first experiment comparing the control group and the HM3a-R group, and the second experiment comparing the control group and the belinostat group. In the first FST, randomly selected C57BL adult female mice (6 weeks, 20 g) were divided into two groups of eight mice per group. And the second FST, randomly selected C57BL adult female mice (6 weeks, 20 g) were divided into two groups of five mice per group. Chimeric compounds, HM3a-R (FIG. 2A) was dissolved in 10% dimethyl sulfoxide and 90% vehicle mixture. Vehicle formulation is 45% (2-hydroxypropyl)-β-cyclodextrin solution. Then, HM3a-R or belinostat as dose 75 mg/kg or vehicle (for control) was injected into mice with 100 μL volume intraperitoneally. After 6 h, two 3-liter beakers were filled approximately with 2 L water at 25+/-0.5 degrees Celsius. Camcorder was placed, directly across from two beakers. Each pair of mice (i.e., one control mouse and one treated mouse) was placed into each beaker. Every trial was video recorded in this manner for 10 minutes. While the beakers were adjacent to each other, they were enclosed by cardboard boxes. The immobile times (between 2 and 8 minutes of 10-minute trial) for each pair of mice were counted by the person who was blinded to the identities of the control and treated mice pairs."}, "[4]": {"system": "antidepressant-like activity in animal models", "assay": "In vivo screening in animal models (antidepressant-like activity)", "conditions": "compared with PDX-101 (belinostat)"}, "[5]": {"system": "depressive symptoms among GBM patients", "assay": "Clinical trial of vorinostat in recurrent glioblastoma, depression assessed by IDS-SR", "type": "in vivo, human", "method": "A clinical trial was performed to evaluate vorinostat for the treatment of recurrent glioblastomas (GBM). Among the pleiotropic effects of HDAC inhibitors is the ability to attenuate inflammation, an action seen at concentrations lower than those required to slow cancer cell growth. GBM is frequently associated with neuroinflammation, which is thought to have pro-tumorigenic effects. […] Such changes are associated with recruitment of macrophages along a hypoxia-mediated chemotactic gradient. Macrophages recruited to hypoxic sites exert tumor-promoting effects through the expression of genes with mitogenic, angiogenic, and migration/invasion stimulating properties. Abrogating inflammatory changes associated with GBM might reduce or eliminate access to these tumor-promoting effects. Another intriguing effect of HDACis as anticancer agents might be their mood-enhancing, potentially anti-depressant, properties. In mice, decreased histone acetylation in key mood-relevant genes was found following chronic social defeat stress, a mouse model of depression. […]\nDuring the clinical trial, levels of depression were assessed using the Inventory of Depressive Symptomatology-Self Report (IDS-SR) to determine whether vorinostat alters the severity of depressive symptoms among GBM patients. […]"}, "[6]": {"system": "antidepressant-like behavioral effects", "conditions": "behaviorally inactive dose of ACY-738 co-administered with sub-effective dose of citalopram; cited from earlier work"}, "[7]": {"conditions": "75 mg/kg intraperitoneally, LPS 850 μg/kg, NIH Swiss male mice"}},
  "note": "“Also recorded” adds a separate entry of the source.",
  "data": [
    {"smiles": "COC(=O)[C@]1(c2ccc(Cl)c(Cl)c2)C[C@H]1CNCc1ccc(C(=O)NO)cc1", "note": "[HM3a-R, (1R,2R)-methyl-1-(3,4-dichlorophenyl)-2-(((4-(hydroxycarbamoyl)benzyl)amino)methyl) cyclopropane-1-carboxylate]", "values": [
      {"measurement": "histone H4 acetylation", "setting": "histone H4 deacetylation", "value": "increased histone H4 acetylation"},
      {"measurement": "anti-inflammation effect compared with the control group against xylene-induced ear edema", "setting": "xylene-induced ear edema", "value": 48, "unit": "%"},
      {"measurement": "effectiveness against ear inflammation, comparison of enantiomers", "setting": "xylene-induced ear edema; FIG. 3", "value": "more effective than HM3a-S"},
      {"measurement": "cellular toxicity", "setting": "Cellular toxicity", "value": "without cellular toxicity"},
      {"measurement": "duration of immobility in TST at 6 h", "setting": "[1]; [7]", "value": "significantly reduced duration of immobility; also recorded: reduction in immobility"},
      {"measurement": "duration of immobility in TST at 24 h", "setting": "[1]; 75 mg/kg intraperitoneally, LPS 850 μg/kg, NIH Swiss male mice, 24 h", "value": "as effective as belinostat; also recorded: reduction in immobility"},
      {"measurement": "onset of antidepressant action in TST versus belinostat", "setting": "[1]; P<0.01, n=5", "value": "faster onset of antidepressant action"},
      {"measurement": "effectiveness against carrageenan-induced paw edema, comparison of enantiomers", "setting": "[2]", "value": "more effective"},
      {"measurement": "duration of immobility in FST", "setting": "[3]; 75 mg/kg intraperitoneally, 6 h, P<0.05", "value": "significantly less duration of immobility"},
      {"measurement": "improvement in forced-swim test (antidepressant-like activity)", "setting": "[3]; 75 mg/kg intraperitoneally", "value": 23, "unit": "%"},
      {"measurement": "antidepressant-like activity in FST relative to belinostat", "setting": "[3]; 23% vs. 12%", "value": "almost two-fold"},
      {"measurement": "antidepressant-like activity and onset time in animal models", "setting": "[4]", "value": "excellent antidepressant-like activity and fast onset time"}
    ]},
    {"smiles": "O=C(CCCCCCC(=O)Nc1ccccc1)NO", "note": "[vorinostat]", "values": [
      {"measurement": "GBM patients with improved IDS-SR scores", "setting": "[5]; 7 days of vorinostat treatment", "value": 67, "unit": "%"},
      {"measurement": "side effect", "setting": "[5]; most patients on treatment for more than 3 weeks", "value": "fatigue"}
    ]},
    {"smiles": "O=C(NO)c1cnc(NC2(c3ccccc3)CC2)nc1", "note": "[ACY-738]", "values": [
      {"measurement": "effects comparable to a higher dose of citalopram administered alone", "setting": "[6]", "value": "~40", "unit": "fold"}
    ]},
    {"smiles": "COC(=O)[C@@]1(c2ccc(Cl)c(Cl)c2)C[C@@H]1CNCc1ccc(C(=O)NO)cc1", "note": "[HM3a-S, (1S,2S)-methyl-1-(3,4-dichlorophenyl)-2-(((4-(hydroxycarbamoyl)benzyl)amino)methyl) cyclopropane-1-carboxylate]", "values": [
      {"measurement": "anti-inflammation effect compared with the control group against xylene-induced ear edema", "setting": "xylene-induced ear edema", "value": 23, "unit": "%"}
    ]},
    {"smiles": "O=C(/C=C/c1cccc(S(=O)(=O)Nc2ccccc2)c1)NO", "note": "[belinostat, reference compound]", "values": [
      {"measurement": "duration of immobility in TST at 6 h", "setting": "[1]; [7]", "value": "didn't show any effect"},
      {"measurement": "improvement in forced-swim test (antidepressant-like activity)", "setting": "[3]; 75 mg/kg intraperitoneally", "value": 12, "unit": "%"}
    ]},
    {"smiles": "Nc1ccccc1NC(=O)c1ccc(CNC(=O)OCc2cccnc2)cc1", "note": "[MS-275, (pyridin-3-yl)methyl-4-(2-aminophenylcarbamoyl)benzylcarbamate]", "values": [
      {"measurement": "inhibition of histone H4 deacetylation, comparison", "setting": "histone H4 deacetylation; 1 μM and 5 μM", "value": "higher inhibitions than HM3a-R"},
      {"measurement": "histone H4 acetylation", "setting": "histone H4 deacetylation", "value": "increased histone H4 acetylation"}
    ]}
  ]
}
